Literature values in US20070141147A1, “SEQUENTIAL RELEASE PHARMACEUTICAL FORMULATIONS” (Auriga Laboratories, Inc., priority 2005, published 2007).
Structures can show the parent of a compound that is named as a salt.

Columns and labels:
[1] = water and alcohol
[2] = in vivo

solubility [1] | Structure (SMILES) | plasma half-life [2]
freely soluble | CNCC(O)c1cccc(O)c1 (stereo in doubt) [Phenylephrine hydrochloride, (S)-3-hydroxy-[alpha][(methylamino)methylbenzenemethanol hydrochloride] | 
 | C[N+]1(C)[C@@H]2C[C@@H](OC(=O)[C@H](CO)c3ccccc3)C[C@H]1[C@@H]1O[C@@H]12 [methscopolamine] | relatively short
soluble | COc1ccccc1OCC(O)CO (stereo not drawn) [Guaifenesin, 3-(2-methoxyphenoxy)-1,2-propanediol] | 
